In patent US9185910B2, “Amide compound” (Sumitomo Chemical Company, Limited, priority 2012, dated 2015):

Legend:
[1] = system: Haemaphysalis longicornis; test: Test Example 11: coated screw tube contact test, Haemaphysalis longicornis ticks; assay type: in vivo; details: 2 mg compound coated on inner wall of screw tube, non-blood-sucking nymphal ticks, after 2 days
Procedure: 2 mg of each of Compounds of Present Invention 7, 20, 25, 28, 48, 55, 65 and 110 was weighed in a screw tube (Maruemu No. 5; 27×55 mm), and 0.2 mL of acetone was added thereto and sealed with a cap to dissolve the compound. The screw tube was rotated and inverted to uniformity coat the drug solution onto the whole inner wall of the tube. After removing the cap, the solution was air-dried for about 2 hours, then non-blood-sucking nymphal ticks, Haemaphysalis longicornis (5 ticks/group) were released, and the tube was sealed with the cap. After 2 days, the number of dead ticks was examined, and the death rate was calculated according to the following equation: Death rate (%)=100×(Number of dead ticks/Number of tested ticks).

[2] = system: Musca domestica; test: Test Example 8: filter paper with sucrose bait, Musca domestica; assay type: in vivo; details: 500 ppm, 0.7 ml on filter paper, female imagoes, after 24 hours
Procedure: The formulations of Compounds of Present Invention 31, 41, 55, 62, 64 to 65, 67 to 70, 73 to 75, 88, 119, 124 and 131 as obtained in Formulation Example 5 were diluted with water, so as to have a concentration of the active ingredient of 500 ppm, to prepare a test drug solution.
A filter paper having a diameter of 5.5 cm was spread on the bottom of a polyethylene cup having the same diameter and 0.7 ml of the test drug solution was added dropwise onto the filter paper, and 30 mg of sucrose was uniformly placed as bait. Into the polyethylene cup, 10 female imagoes of Musca domestica were released, and the cup was sealed with a lid. After 24 hours, the life and death of Musca domestica was examined, and the death rate was calculated. Death rate (%)=(Number of dead insects/Number of tested insects)×100

| Compound | Death rate (%) [1] [%] | Death rate (%) [2] [%] |
| --- | --- | --- |
| CCSc1cccnc1C(=O)Nc1ccc(C(F)(F)F)nc1 [compound 20] | 100 | – |
| CCSc1cccnc1C(=O)N(C)c1ccc(I)cn1 [compound 70] | – | 100 |
| CCSc1cccnc1C(=O)N(C)c1ccc(C(F)(F)C(F)(F)F)c(Cl)n1 [compound 110] | 100 | – |
| CCS(=O)(=O)c1cc(NC(=O)OC)cnc1C(=O)N(C)c1ccc(SC(F)(F)F)cc1 [compound 119] | – | 100 |
| CCSc1cc(Cl)cnc1C(=O)N(C)c1ccc(C(F)(F)F)cc1 [compound 131] | – | 100 |
